Test results taken from patent US11452292B2, “Biofilm inhibitor and method of inhibiting biofilm” (NDSU Research Foundation, priority 2017, dated 2022).
In brackets after ≈: the same amount, converted by molar mass. Entries after “also recorded” stand apart in the source; their conditions may differ. Like-named read-outs stand apart in the source and are kept apart here.

Legend:
[1] = tested on: Y. enterocolitica; assay: Viable bacteria (cell counts) within the biofilm; format: cell-based, Yersinia enterocolitica
[2] = tested on: E. coli O157:H7; format: cell-based, Escherichia coli O157:H7; conditions: 0.5% EAA
[3] = tested on: Y. enterocolitica; assay: Biofilm in silicone tubing, EAA flush, ATP assay
[4] = tested on: Cronobacter sakazakii, Serratia marcescens, and Yersinia enterocolitica; assay: Growth and biofilm assays, summary over the three pathogens
[5] = tested on: P. aeruginosa; assay: Biofilm in silicone tubing, EAA flush, ATP assay
[6] = tested on: pseudomonads; assay: Ground beef at 10° C., counts on PSA plates; format: cell-based; conditions: for Different from 0% (concentrations grouping differently from untreated control, Fisher's LSD and t-test): PSA, Pseudomonas
Method: Ground beef was obtained from the NDSU Meat Lab (ag.ndsu.edu/ansc/facilities/shepperd-arena). Precautionary steps that the slaughter facility undertakes to prevent microbial contamination of muscle meat include rinses of the hot carcass with hot water and 2.5% lactic acid (Birko Corp., Henderson, Colo.). Prior to cutting the meat, cattle halves are incubated for two weeks at a temperature between 0 and 2.2° C. For this Example, meat from two animals was ground within the NDSU Meat Lab and consecutively transferred on ice to the research lab where this Experiment was conducted. Approximately 4 pound of ground meat was obtained from two independent slaughter events (FIG. 6). These two original meat samples are referred to as biological replicates throughout this study. Each biological replicate was weighed into five aliquots of 200 g that were supplemented with 0 g, 0.1 g, 0.5 g, 1 g, or 5 g of liquid EAA (Alfa Aesar, Ward Hill Mass.). […]
Meat samples were removed from the freezer and incubated at 10° C. for five days; bacterial counts were determined on days 1, 3, and 5. […]
The content of each bag was transferred into a stomacher bag and Maximum Recovery Diluent (MRD) was added to a total of 50 ml. […] The total bacterial count of each homogenate was determined by plating serial dilutions on Plate Count Agar (PCA). Pseudomonads were determined with Pseudomonas Selective Agar (PSA), lactobacilli with All Purpose Tween agar (APT), B. thermospacta with Streptomycin sulphate, Thallous Acetate and Actidione agar (STAA), and Enterobacteriaceae with Violet Red Bile Glucose agar (VRBG). […]
Each experiment was performed in a total of 8 replicates (2 biological replicates×2 technical replicates×2 plate replicates). […] Data were analyzed for each EAA concentration and selective media and expressed as CFU/g of meat or log10 CFU/g of meat. […] Average and standard errors were calculated across the two biological and two technical replicates. […]

[7] = tested on: P. aeruginosa; assay: Biofilm in silicone tubing, EAA flush, CV assay; conditions: 100 mg/ml EAA
[8] = tested on: E. coli CFT073; assay: Biofilm in silicone tubing, EAA flush, ATP assay
[9] = tested on: Y. enterocolitica; assay: Biofilm in silicone tubing, EAA flush, CV assay; conditions: 10 mg/ml EAA
[10] = tested on: S. aureus; assay: Viable cell counts in the liquid collected from the tubing before each treatment; format: cell-based, Staphylococcus aureus; conditions: before the 2nd treatment, 100 mg/ml EAA as first treatment
[11] = tested on: S. marcescens; assay: Biofilm in silicone tubing, EAA flush, ATP assay; conditions: 5 mg/ml EAA
[12] = tested on: albino rabbits; conditions: 0.5 ml EAA, semi-occlusive cover, intact skin, 4 hours of exposure; cited from earlier work
[13] = tested on: total bacterial count; assay: Ground beef at 10° C., total bacterial count on PCA plates; format: cell-based; conditions: for total bacterial count in the presence of EAA: day 3, unsupplemented 9 log10; for Different from 0% (concentrations grouping differently from untreated control, Fisher's LSD and t-test): PCA, total bacterial count
Method: (§1) Ground beef was obtained from the NDSU Meat Lab (ag.ndsu.edu/ansc/facilities/shepperd-arena). Precautionary steps that the slaughter facility undertakes to prevent microbial contamination of muscle meat include rinses of the hot carcass with hot water and 2.5% lactic acid (Birko Corp., Henderson, Colo.). Prior to cutting the meat, cattle halves are incubated for two weeks at a temperature between 0 and 2.2° C. For this Example, meat from two animals was ground within the NDSU Meat Lab and consecutively transferred on ice to the research lab where this Experiment was conducted. Approximately 4 pound of ground meat was obtained from two independent slaughter events (FIG. 6). These two original meat samples are referred to as biological replicates throughout this study. Each biological replicate was weighed into five aliquots of 200 g that were supplemented with 0 g, 0.1 g, 0.5 g, 1 g, or 5 g of liquid EAA (Alfa Aesar, Ward Hill Mass.). A total of six aliquots of 10 g were produced from each 200 g aliquot to allow for two technical replicates and determination of bacterial counts at three different time points during the incubation period. Aliquots were stored in Ziploc bags at −20° C.
(§2) Meat samples were removed from the freezer and incubated at 10° C. for five days; bacterial counts were determined on days 1, 3, and 5. For one initial experiment, samples were removed after 1 h of incubation at 10° C. This aliquot is not included in FIG. 6.
(§3) The content of each bag was transferred into a stomacher bag and Maximum Recovery Diluent (MRD) was added to a total of 50 ml. Meat was homogenized in a Seward Stomacher 400 Circulator (Cole Parmer, Vernon Hills, Ill.). The total bacterial count of each homogenate was determined by plating serial dilutions on Plate Count Agar (PCA). Pseudomonads were determined with Pseudomonas Selective Agar (PSA), lactobacilli with All Purpose Tween agar (APT), B. thermospacta with Streptomycin sulphate, Thallous Acetate and Actidione agar (STAA), and Enterobacteriaceae with Violet Red Bile Glucose agar (VRBG). For the composition of these media, see TABLE 7 (BD: Becton Dickinson). Each serial dilution was plated onto two separate agar plates to allow for two plate replicates (FIG. 6).
Each experiment was performed in a total of 8 replicates (2 biological replicates×2 technical replicates×2 plate replicates). To prepare for analysis, the data sets were pre-processed by determining the averages for the 2 plate replicates. Data were analyzed for each EAA concentration and selective media and expressed as CFU/g of meat or log10 CFU/g of meat. The lower limit of detection was 49 CFU, which is the equivalent of 1.69 log10. This number was used for all experiments that yielded zero colonies from the undiluted homogenate. To determine log reductions, the log10 CFU/g of meat at a given concentration of EAA was subtracted from that obtained for the untreated control piece of meat. Average and standard errors were calculated across the two biological and two technical replicates. Statistical analysis was started with an Analysis of Variance (ANOVA) test that compared the means of the log10 CFU/g data across concentrations, days, and biological replicates to determine the main effects. For comparisons that determined statistically significant differences between the means (p-value below 0.05), Fisher's Least Significant Difference (LSD) test and a pairwise Student's t-test were performed as post hoc test to determine which of the groups were different from the others.

[14] = tested on: tested bacterial pathogens; assay: Biofilm in silicone tubing, EAA flush, ATP assay, summary over strains; format: cell-based
Excerpt: An AV Fistula Needle 17 Ga.

[15] = tested on: Enterobacteriaceae; assay: Ground beef at 10° C., counts on VRBG plates; format: cell-based; conditions: for Different from 0% (concentrations grouping differently from untreated control, Fisher's LSD and t-test): VRGB, Enterobacteriaceae
Method: as §1, §2
as §3, with “Each serial dilution was plated onto two separate agar plates to allow for two plate replicates (FIG. 6).” left out
Each experiment was performed in a total of 8 replicates (2 biological replicates×2 technical replicates×2 plate replicates). […] Data were analyzed for each EAA concentration and selective media and expressed as CFU/g of meat or log10 CFU/g of meat. […] Average and standard errors were calculated across the two biological and two technical replicates. […] For comparisons that determined statistically significant differences between the means (p-value below 0.05), Fisher's Least Significant Difference (LSD) test and a pairwise Student's t-test were performed as post hoc test to determine which of the groups were different from the others.

[16] = tested on: E. coli CFT073; assay: Biofilm in silicone tubing, EAA flush, CV assay

CCOC(=O)CC(C)=O [EAA, ethyl acetoacetate]
reduction of bacterial cell counts in the biofilm ([1]; 25° C., 7.5 mg/ml EAA): 2.06 logs | reduction of bacterial cell counts in the biofilm ([1]; 25° C., 10 mg/ml EAA): 3.07 logs | bacterial cell counts in the biofilm ([1]; 37° C., 2.5 mg/ml EAA): did not show a reduction | log reduction of bacterial cell counts in the biofilm ([1]; 37° C., 7.5 mg/ml EAA): 2.06 logs | log reduction in live bacteria within the biofilm ([1]; 37° C., 10 mg/ml of EAA): 0.92 | reduction in live bacteria within the biofilm, fold equivalent ([1]; 37° C., 10 mg/ml of EAA): 8.3 fold | IC50 ([1]; Yersinia enterocolitica, Y. enterocolitica, 25° C., live bacteria in the biofilm, read-out: IC50, Live cells): 3000 µg/mL (≈ 23.1 mM) | externally added E. coli count in the presence of EAA ([2]; day 3, without EAA 5.2 log10): 4.1 log10 | reduction in the E. coli count ([2]; day 5 at 10° C.): 1.6 log | reduction in ATP content in the biofilm ([3]; 1 mg/ml EAA): 71% | percent reduction of ATP ([3]; 100 mg/ml EAA): 105% | IC50 ([4]; read-out: IC50 values for biofilm amounts (summary)): ~1000 µg/mL (≈ 7.68 mM) | IC50 ([4]; read-out: IC50 values, range over all experiments): 310 to 5600 µg/mL (≈ 2.38 to 43 mM) | reduction of growth, biofilm amounts and live bacterial cell counts ([4]; three pathogens, maximal reduction): up to 3 logs | ATP content of P. aeruginosa biofilm ([5]; 100 mg/ml EAA, first experiment): not affected; also recorded: not reduced | reduction of ATP ([5]; P. aeruginosa, 10 mg/ml of EAA): 76% | ATP assay of the biofilm at the end of the two week incubation ([5]; P. aeruginosa, 100 mg/ml of EAA, repeated experiment): just about abolished the biofilm | log reduction, pseudomonads ([6]; 0.5% w/w EAA, 3 days at 10° C.): 2.6 | Different from 0% (concentrations grouping differently from untreated control, Fisher's LSD and t-test) ([6]; 0.5% EAA): 0.5% | Different from 0% (concentrations grouping differently from untreated control, Fisher's LSD and t-test) ([6]; 2.5% EAA): 2.5% | reduction in biofilm biomass (CV), words ([7]; first experiment): no reduction | biofilm biomass from the CV assay after EAA ([7]; repeated experiment, untreated 0.78): 0.24 OD600 | reduction in ATP content of the biofilm ([8]; E. coli CFT073, 5 mg/ml EAA): ~100% | percent reduction of ATP ([8]; E. coli CFT073, 100 mg/ml EAA): 98.5% | reduction in biofilm biomass (CV), words [9]: No reduction | difference in viable cells in the liquid, EAA vs media flush [10]: 2 log | reduction in ATP content of the biofilm [11]: ~100% | skin irritation [12]: no indications of irritation were detected | log reduction, total bacterial count ([13]; 0.5% EAA, 3 days at 10° C.): 2.4 | log reduction, total bacterial count ([13]; 0.5% of EAA, 1 day at 10° C.): 0.65 | total bacterial count in the presence of EAA ([13]; 0.5% of EAA): 7.8 log10 | reduction of total bacterial count ([13]; 2.5% EAA, 5 days at 10° C.): 4.3 logs | log reduction, total bacterial count ([13]; 2.5% of EAA, 1 day at 10° C.): 2.1 | total bacterial count in the presence of EAA ([13]; 2.5% of EAA): 6.6 log10 | Different from 0% (concentrations grouping differently from untreated control, Fisher's LSD and t-test) ([13]; 0.5% EAA): 0.5% | Different from 0% (concentrations grouping differently from untreated control, Fisher's LSD and t-test) ([13]; 2.5% EAA): 2.5% | reductions of ATP, all strains except S. marcescens ([14]; 10 mg/ml EAA): ≥ 80% | reduction of ATP content of the biofilm, almost all tested pathogens ([14]; 100 mg/ml of EAA flush): 100% | reduction of ATP content depending on the strain ([14]; 10 and 100 mg/ml EAA): 90-99% | log reduction, Enterobacteriaceae ([15]; 0.5% w/w EAA, 3 days at 10° C.): 2 | log reductions, Enterobacteriaceae ([15]; 2.5% of EAA, 5 days at 10° C.): up to 3.8 | Different from 0% (concentrations grouping differently from untreated control, Fisher's LSD and t-test) ([15]; 0.5% EAA): 0.5% | Different from 0% (concentrations grouping differently from untreated control, Fisher's LSD and t-test) ([15]; 2.5% EAA): 2.5% | reduction in total biofilm biomass (CV), words ([16]; E. coli CFT073, 5 mg/ml of EAA): almost no reduction | reduction in biofilm biomass (CV), words ([16]; E. coli CFT073, 10 mg/ml EAA): No reduction
